Results reported in patent publication US20250368649A1, “TETRAHYDROPYRIDOPYRIMIDINE PAN-KRAS INHIBITORS” (Mirati Therapeutics, Inc., priority 2022, published 2025).

Experiments:
KRas G12R = KRas G12R (Homo sapiens, UniProt P01116, G12R); assay: biochemical; conditions: Binding to KRas (IC50 nM) G12R, TR-FRET displacement, KRas G12R
KRas G12V = KRas G12V (Homo sapiens, UniProt P01116, G12V); assay: biochemical; conditions: Binding to KRas (IC50 nM) G12V, TR-FRET displacement, KRas G12V
A549 cells = assay: Inhibition of KRas-mediated phosphorylation of ERK (Cisbio HTRF pERK), A549 cells; type: cell-based; conditions: Homo sapiens, A549, 3 h, 3 hr compound incubation
HCT116 cells = assay: Inhibition of KRas-mediated phosphorylation of ERK (Cisbio HTRF pERK), HCT116 cells; type: cell-based; conditions: Homo sapiens, HCT-116, 3 h, 3 hr compound incubation
ASPC1 cells = assay: Inhibition of KRas-mediated phosphorylation of ERK (Cisbio HTRF pERK), ASPC1 cells; type: cell-based; conditions: Homo sapiens, ASPC1, 3 h, AsPC-1 cells, 3 hr compound incubation
PSN1 cells = assay: Inhibition of KRas-mediated phosphorylation of ERK (Cisbio HTRF pERK), PSN1 cells; type: cell-based; conditions: Homo sapiens, PSN1, 3 h
Summary of the method: (§1)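 Phospho-ERK signal measured by HTRF after cells had been plated at 6,000/well in RPMI supplemented with 10% FBS on day 1.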

KRas G12D = KRas G12D (Homo sapiens, UniProt P01116, G12D); assay: biochemical; conditions: Binding to KRas (IC50 nM) G12D, TR-FRET displacement, KRas G12D
MKN1 cells = assay: Inhibition of KRas-mediated phosphorylation of ERK (Cisbio HTRF pERK), MKN1 cells; type: cell-based; conditions: Homo sapiens
Summary of the method: as §1

H460 cells = assay: Inhibition of KRas-mediated phosphorylation of ERK (Cisbio HTRF pERK), H460 cells; type: cell-based; conditions: Homo sapiens, NCI-H460, 3 h, 3 hr compound incubation
H727 cells = assay: Inhibition of KRas-mediated phosphorylation of ERK (Cisbio HTRF pERK), H727 cells; type: cell-based; conditions: Homo sapiens, NCI-H727, 3 h, 3 hr compound incubation
H358 cells = assay: Inhibition of KRas-mediated phosphorylation of ERK (Cisbio HTRF pERK), H358 cells; type: cell-based; conditions: Homo sapiens, NCI-H358, 3 h, 3 hr compound incubation
[1] = 3 hour compound incubation, Cisbio pERK HTRF
[2] = MKN-1, 3 hour compound incubation, Cisbio pERK HTRF
[3] = MKN-1, 3 hr compound incubation

KRas G12V, sequence (P01116 1-169 isoform P01116-2 G12V): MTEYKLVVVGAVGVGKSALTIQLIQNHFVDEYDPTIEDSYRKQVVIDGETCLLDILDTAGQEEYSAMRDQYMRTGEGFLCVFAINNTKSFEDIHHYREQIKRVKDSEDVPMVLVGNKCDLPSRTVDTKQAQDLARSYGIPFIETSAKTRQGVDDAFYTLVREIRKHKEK
KRas G12D, sequence (P01116 1-169 isoform P01116-2 G12D): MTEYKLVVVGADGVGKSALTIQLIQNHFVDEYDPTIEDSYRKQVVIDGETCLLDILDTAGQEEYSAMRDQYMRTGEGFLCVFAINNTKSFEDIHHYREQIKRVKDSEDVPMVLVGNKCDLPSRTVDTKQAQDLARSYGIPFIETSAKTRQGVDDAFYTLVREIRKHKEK
KRas G12R, sequence (P01116 1-169 isoform P01116-2 G12R): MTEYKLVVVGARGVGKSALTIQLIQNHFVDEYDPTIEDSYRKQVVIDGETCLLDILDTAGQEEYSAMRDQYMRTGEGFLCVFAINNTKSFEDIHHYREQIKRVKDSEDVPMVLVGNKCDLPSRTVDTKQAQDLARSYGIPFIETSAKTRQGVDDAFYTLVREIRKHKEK

Compound	IC50 (KRas G12R) [nM]	IC50 (KRas G12V) [nM]	IC50 (A549 cells; Cisbio pERK HTRF) [nM]	IC50 (HCT116 cells; Cisbio pERK HTRF) [nM]	IC50 (ASPC1 cells; Cisbio pERK HTRF) [nM]	IC50 (PSN1 cells; [1]) [nM]	IC50 (KRas G12D) [nM]	IC50 (MKN1 cells; [2]) [nM]	IC50 (H460 cells; Cisbio pERK HTRF) [nM]	IC50 (H727 cells; Cisbio pERK HTRF) [nM]	IC50 (H358 cells; Cisbio pERK HTRF) [nM]	IC50 (A549 cells) [nM]	IC50 (HCT116 cells) [nM]	IC50 (ASPC1 cells) [nM]	IC50 (PSN1 cells; 3 hr compound incubation) [nM]	IC50 (MKN1 cells; [3]) [nM]	IC50 (H460 cells) [nM]	IC50 (H727 cells) [nM]	IC50 (H358 cells) [nM]
CCc1c(F)ccc2cc(O)cc(N3CCc4c(nc(OCC5(CN(C)C)CC5)nc4N4CC(C)CC(CO)C4)C3)c12 (centres unmarked) [Example 596, 4-(2-((1-((dimethylamino)methyl)cyclopropyl)methoxy)-4-(3-(hydroxymethyl)-5-methylpiperidin-1-yl)-5,8-dihydropyrido[3,4-d]pyrimidin-7(6H)-yl)-5-ethyl-6-fluoronaphthalen-2-ol]	9	7	2670	3340	1920	> 10000	11	> 10000	1280	2490	595	–	–	–	–	–	–	–	–
CCc1c(F)ccc2cc(O)cc(N3CCc4c(nc(OCC5(CN(C)C)CC5)nc4N4CCCC(c5cn(C)nn5)C4)C3)c12 (centres unmarked) [Example 598, 4-(2-((1-((dimethylamino)methyl)cyclopropyl)methoxy)-4-(3-(1-methyl-1H-1,2,3-triazol-4-yl)piperidin-1-yl)-5,8-dihydropyrido[3,4-d]pyrimidin-7(6H)-yl)-5-ethyl-6-fluoronaphthalen-2-ol]	8	12	1540	4280	2380	> 10000	16	1450	1260	1740	757	–	–	–	–	–	–	–	–
CCc1c(F)ccc2cc(O)cc(N3CCc4c(nc(OCC5(CN(C)C)CC5)nc4N4CCCC(n5ccc(C)n5)C4)C3)c12 (centres unmarked) [Example 600, 4-(2-((1-((dimethylamino)methyl)cyclopropyl)methoxy)-4-(3-(3-methyl-1H-pyrazol-1-yl)piperidin-1-yl)-5,8-dihydropyrido[3,4-d]pyrimidin-7(6H)-yl)-5-ethyl-6-fluoronaphthalen-2-ol]	7	25	> 10000	3290	4980	605	33	1120	1210	6290	808	–	–	–	–	–	–	–	–
CCc1c(F)ccc2cc(O)cc(N3CCc4c(nc(OC[C@@]56CCCN5C[C@H](F)C6)nc4N4CCCn5nc(C(=O)N6C[C@@H]7CCC[C@H]6C7)cc5C4)C3)c12 [Example 615, ((1R,5S)-6-azabicyclo[3.2.1]octan-6-yl)(5-(7-(8-ethyl-7-fluoro-3-hydroxynaphthalen-1-yl)-2-(((2R,7aS)-2-fluorotetrahydro-1H-pyrrolizin-7a(5H)-yl)methoxy)-5,6,7,8-tetrahydropyrido[3,4-d]pyrimidin-4-yl)-5,6,7,8-tetrahydro-4H-pyrazolo[1,5-a][1,4]diazepin-2-yl)methanone]	2	< 2	–	–	–	–	3	–	–	–	–	15	144	7	4640	34.6	41	4	6
CCc1c(F)ccc2cc(O)cc(N3CCc4c(nc(OC[C@@]56CCCN5C[C@H](F)C6)nc4N4CCCn5nc(C(=O)N6C[C@H]7CCC[C@@H]6C7)cc5C4)C3)c12 [Example 616, ((1S,5R)-6-azabicyclo[3.2.1]octan-6-yl)(5-(7-(8-ethyl-7-fluoro-3-hydroxynaphthalen-1-yl)-2-(((2R,7aS)-2-fluorotetrahydro-1H-pyrrolizin-7a(5H)-yl)methoxy)-5,6,7,8-tetrahydropyrido[3,4-d]pyrimidin-4-yl)-5,6,7,8-tetrahydro-4H-pyrazolo[1,5-a][1,4]diazepin-2-yl)methanone]	3	< 2	–	–	–	–	4	–	–	–	–	24	176	17	> 10000	62.9	48	17	11

The remaining lines, values ahead:

IC50 (KRas G12R) [nM]	IC50 (KRas G12V) [nM]	IC50 (A549 cells; Cisbio pERK HTRF) [nM]	IC50 (HCT116 cells; Cisbio pERK HTRF) [nM]	IC50 (ASPC1 cells; Cisbio pERK HTRF) [nM]	IC50 (PSN1 cells; [1]) [nM]	IC50 (KRas G12D) [nM]	IC50 (MKN1 cells; [2]) [nM]	IC50 (H460 cells; Cisbio pERK HTRF) [nM]	IC50 (H727 cells; Cisbio pERK HTRF) [nM]	IC50 (H358 cells; Cisbio pERK HTRF) [nM]	IC50 (A549 cells) [nM]	IC50 (HCT116 cells) [nM]	IC50 (ASPC1 cells) [nM]	IC50 (PSN1 cells; 3 hr compound incubation) [nM]	IC50 (MKN1 cells; [3]) [nM]	IC50 (H460 cells) [nM]	IC50 (H727 cells) [nM]	IC50 (H358 cells) [nM]	Compound
< 2	< 2	722	3580	161	> 10000	< 2	953	3410	1220	229	–	–	–	–	–	–	–	–	CCc1c(F)ccc2cc(O)cc(N3CCc4c(nc(OC[C@@]56CCCN5C[C@H](F)C6)nc4N4CCCn5nc(C(=O)N6CC7CNC(CO)C7C6)cc5C4)C3)c12 (stereo partly drawn) [Example 607, (5-(7-(8-ethyl-7-fluoro-3-hydroxynaphthalen-1-yl)-2-(((2R,7aS)-2-fluorotetrahydro-1H-pyrrolizin-7a(5H)-yl)methoxy)-5,6,7,8-tetrahydropyrido[3,4-d]pyrimidin-4-yl)-5,6,7,8-tetrahydro-4H-pyrazolo[1,5-a][1,4]diazepin-2-yl)(4-(hydroxymethyl)hexahydropyrrolo[3,4-c]pyrrol-2(1H)-yl)methanone]
< 2	< 2	215	544	46	> 10000	< 2	49.7	353	274	42	–	–	–	–	–	–	–	–	CCc1c(F)ccc2cc(O)cc(N3CCc4c(nc(OC[C@@]56CCCN5C[C@H](F)C6)nc4N4CCCn5nc(C(=O)N6CCNC7CC6C7)cc5C4)C3)c12 [Example 608, (2,5-diazabicyclo[4.1.1]octan-2-yl)(5-(7-(8-ethyl-7-fluoro-3-hydroxynaphthalen-1-yl)-2-(((2R,7aS)-2-fluorotetrahydro-1H-pyrrolizin-7a(5H)-yl)methoxy)-5,6,7,8-tetrahydropyrido[3,4-d]pyrimidin-4-yl)-5,6,7,8-tetrahydro-4H-pyrazolo[1,5-a][1,4]diazepin-2-yl)methanone]
< 2	< 2	–	–	–	–	< 2	–	–	–	–	3	123	4	4070	5.5	40	10	4	CCc1c(F)ccc2cc(O)cc(N3CCc4c(nc(OC[C@@]56CCCN5C[C@H](F)C6)nc4N4CCCn5nc(C(=O)N6CC[C@H]7C[C@H]76)cc5C4)C3)c12 [Example 614, ((1R,5S)-2-azabicyclo[3.1.0]hexan-2-yl)(5-(7-(8-ethyl-7-fluoro-3-hydroxynaphthalen-1-yl)-2-(((2R,7aS)-2-fluorotetrahydro-1H-pyrrolizin-7a(5H)-yl)methoxy)-5,6,7,8-tetrahydropyrido[3,4-d]pyrimidin-4-yl)-5,6,7,8-tetrahydro-4H-pyrazolo[1,5-a][1,4]diazepin-2-yl)methanone]
< 2	< 2	–	–	–	–	< 2	–	–	–	–	10	69	5	1420	1.9	34	7	1	CCc1c(F)ccc2cc(O)cc(N3CCc4c(nc(OC[C@@]56CCCN5C[C@H](F)C6)nc4N4CCCn5nc(C(=O)N6C[C@H]7CO[C@H](C7)C6)cc5C4)C3)c12 [Example 619, ((1S,5R)-6-oxa-3-azabicyclo[3.2.1]octan-3-yl)(5-(7-(8-ethyl-7-fluoro-^3-hydroxynaphthalen-1-yl)-2-(((2R,7aS)-2-fluorotetrahydro-1H-pyrrolizin-7a(5H)-yl)methoxy)-5,6,7,8-tetrahydropyrido[3,4-d]pyrimidin-4-yl)-5,6,7,8-tetrahydro-4H-pyrazolo[1,5-a][1,4]diazepin-2-yl)methanone]
< 2	< 2	–	–	–	–	< 2	–	–	–	–	24	111	6	2670	3.7	30	7	2	CCc1c(F)ccc2cc(O)cc(N3CCc4c(nc(OC[C@@]56CCCN5C[C@H](F)C6)nc4N4CCCn5nc(C(=O)N6C[C@@H]7CO[C@@H](C7)C6)cc5C4)C3)c12 [Example 620, ((1R,5S)-6-oxa-3-azabicyclo[3.2.1]octan-3-yl)(5-(7-(8-ethyl-7-fluoro-3-hydroxynaphthalen-1-yl)-2-(((2R,7aS)-2-fluorotetrahydro-1H-pyrrolizin-7a(5H)-yl)methoxy)-5,6,7,8-tetrahydropyrido[3,4-d]pyrimidin-4-yl)-5,6,7,8-tetrahydro-4H-pyrazolo[1,5-a][1,4]diazepin-2-yl)methanone]
